From patent publication US20230348459A1, “PYRROLIDINE COMPOUND AND USE THEREOF” (SIMCERE PHARMACEUTICAL CO., LTD., priority 2020, published 2023)

Tests used:
[1] = Pharmacokinetic evaluation in mice; assay type: in vivo; conditions: CD-1 mice; for bioavailability: female, mouse, plasma, PO 10 mg/kg vs IV 1 mg/kg
Description: Six female CD-1 mice (20-30 g, 4-6 weeks) were randomized into 2 groups, 3 mice/group. Group 1 was given the test compound via tail vein injection at a dose of 1 mg/kg, and the vehicle was 5% DMSO in 10% HP-β-CD in water, and group 2 was given the test compound orally at a dose of 10 mg/kg, and the vehicle was 40% Tetraethylene Glycol (v/v), 7.5% Captisol (w/v) in water. Prior to the experiment, the animals were given food and water as usual. Before administration and 0.083 (only for the vein injection group), 0.25, 0.5, 1, 2, 4, 6, 8 and 24 h after administration, blood was sampled from the veins of the mice in each group. The whole blood sample collected was placed in a K2EDTA anticoagulation tube and centrifuged for 5 min (12,000 rpm, 4° C.) and then the plasma was taken for later detection.
10 µL of the mouse plasma sample was taken and 150 µL of acetonitrile solvent (wherein internal standard compound was contained) was added to precipitate proteins. After the mixture was vortexed for 5 min, centrifugation (14,000 rpm) was performed for 5 min. The supernatant was diluted 2-fold with water containing 0.1% (v/v) FA and injected into the LC-MS/MS system (AB Sciex Triple Quad 6500+) for the quantitative detection. A calibration standard curve was prepared in CD-1 mouse plasma along with quality control samples to determine the plasma concentration. For the 10x diluted samples, 2 µL of the sample was taken and 18 µL of blank plasma was added. After the mixture was vortexed for 0.5 min, 300 µL of acetonitrile solvent (wherein an internal standard compound was contained) was added to precipitate proteins. The other processing steps were identical to those for the samples not diluted.

[2] = target: voltage-gated potassium ion channel hERG (Homo sapiens (Human), UniProt Q12809); assay: hERG manual patch clamp in HEK293 cells; assay type: cell-based; conditions: HEK293 cells stably expressing hERG
Description: HEK293 cell line stably expressing hERG ion channel (Cat. No. K1236) was purchased from Invitrogen. The cell line was cultured in the medium containing 85% DMEM, 10% dialysis fetal bovine serum, 0.1 mM non-essential amino acid solution, 100 U/mL penicillin-streptomycin solution, 25 mM HEPES, 5 µg/mL blasticidin and 400 µg/mL geneticin. When the cell density increased to 40%-80% of the bottom area of the culture dish, trypsin was used for digestion and passage, and the cells were passaged three times weekly. Before the experiment, the cells were cultured in a 6 cm culture dish at a density of 5 × 10^5 and induced by adding 1 µg/mL doxycycline for 48 hours, and then the cells were digested and inoculated on glass slides for subsequent manual patch clamp experiments.
1) According to the SOP-ADMET-MAN-007 standard operating procedure, the compounds to be tested were dissolved with DMSO and prepared into the stock solution with a final concentration of 10 mM. […]
10. Determination of the inhibitory effect of the compounds to be tested on hERG current: First, the hERG current measured in extracellular fluid containing 0.1% DMSO was used as the detection baseline. […] By waiting for about 5 minutes after the completion of each perfusion, the compound was allowed to fully act on the cells, and the hERG currents were simultaneously recorded. After the currents to be recorded became stable, the last 5 hERG current values were recorded, and the average value thereof was taken as the final current value thereof at a specific concentration. […] In addition, the positive compound dofelide was detected with the same patch clamp system both before and after the completion of the test compound experiment to ensure the reliability and sensitivity of the entire detection system.
1) After perfusion of blank solvent or compound gradient solution, the average value of 5 continuous current values obtained in a stable state is calculated as “tail current valueblank” and “tail current valuecompound”, respectively.
2) The percent current inhibition was calculated by the following formula. […]

Sequence of voltage-gated potassium ion channel hERG (Q12809 whole entry): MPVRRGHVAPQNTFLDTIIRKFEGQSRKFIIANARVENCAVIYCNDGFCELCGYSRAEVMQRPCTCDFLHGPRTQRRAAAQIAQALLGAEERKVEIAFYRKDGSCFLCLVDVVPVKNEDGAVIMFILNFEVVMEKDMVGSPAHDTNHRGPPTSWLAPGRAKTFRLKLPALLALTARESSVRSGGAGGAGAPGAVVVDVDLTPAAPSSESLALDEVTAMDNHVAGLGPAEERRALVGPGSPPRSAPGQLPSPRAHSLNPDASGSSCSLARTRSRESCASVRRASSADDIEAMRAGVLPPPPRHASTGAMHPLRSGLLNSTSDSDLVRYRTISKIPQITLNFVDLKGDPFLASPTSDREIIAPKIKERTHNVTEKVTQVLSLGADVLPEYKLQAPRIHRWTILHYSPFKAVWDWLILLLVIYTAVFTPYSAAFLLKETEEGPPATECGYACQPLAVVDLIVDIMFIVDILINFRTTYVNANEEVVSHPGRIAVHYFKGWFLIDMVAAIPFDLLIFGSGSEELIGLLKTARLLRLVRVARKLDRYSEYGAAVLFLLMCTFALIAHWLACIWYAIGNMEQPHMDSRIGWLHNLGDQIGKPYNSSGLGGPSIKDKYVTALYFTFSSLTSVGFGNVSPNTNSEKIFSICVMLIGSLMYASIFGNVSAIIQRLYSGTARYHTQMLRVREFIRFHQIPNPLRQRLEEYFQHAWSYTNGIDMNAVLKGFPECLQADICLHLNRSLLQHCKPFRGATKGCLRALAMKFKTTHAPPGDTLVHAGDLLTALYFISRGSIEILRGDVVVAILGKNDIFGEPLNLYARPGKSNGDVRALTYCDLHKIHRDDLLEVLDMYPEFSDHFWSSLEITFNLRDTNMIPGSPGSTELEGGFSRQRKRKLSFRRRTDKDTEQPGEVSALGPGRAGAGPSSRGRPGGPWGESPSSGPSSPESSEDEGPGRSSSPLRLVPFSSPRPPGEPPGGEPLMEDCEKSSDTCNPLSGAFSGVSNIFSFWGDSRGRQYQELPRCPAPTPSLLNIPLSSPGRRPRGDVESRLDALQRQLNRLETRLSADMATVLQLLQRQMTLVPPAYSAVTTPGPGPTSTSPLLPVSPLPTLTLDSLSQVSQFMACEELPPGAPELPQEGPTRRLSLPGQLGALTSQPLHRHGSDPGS

SMILES	Drug exposure ([1]; IV 1 mg/kg)	Maximum drug concentration ([1]; IV 1 mg/kg)	Time of half drug elimination ([1]; IV 1 mg/kg)	Drug exposure ([1]; PO 10 mg/kg)	Maximum drug concentration ([1]; PO 10 mg/kg)	Time of half drug elimination ([1]; PO 10 mg/kg)	Time to peak drug concentration ([1]; PO 10 mg/kg)	bioavailability [1]	IC50 [2]
C[C@@H]1Cc2c([nH]c3ccccc23)C(c2c(F)cc(N[C@H]3CCN(CCCF)C3)cc2F)N1CC(F)(F)F (stereo in doubt) [Example 4, (S)-N-(3,5-difluoro-4-((1S,3R)-3-methyl-2-(2,2,2-trifluoroethyl)-2,3,4,9-tetrahydro-1H-pyridino[3,4-b]indol-1-yl)phenyl)-1-(3-fluoropropyl)pyrrolidin-3-amine]	639 ng·h/mL	78 ng/mL	21 h	3853 ng·h/mL	222 ng/mL	19 h	5 h	60%	3.7 µM
C[C@@H]1Cc2c([nH]c3ccccc23)C(c2c(F)cc(N[C@H]3CCN(CCCF)C3)cc2F)N1CC(F)(F)CO (stereo in doubt) [Example 7, 3-((1S,3R)-1-(2,6-difluoro-4-(((S)-1-(3-fluoropropyl)pyrrolidin-3-yl)amino)phenyl)-3-methyl-3,4-dihydro-1H-pyridino [3,4-b]indole-2(9H)-yl)-2,2-difluoropropane-1-ol]	879 ng·h/mL	259 ng/mL	5 h	5447 ng·h/mL	555 ng/mL	4 h	1 h	62%	8.4 µM
C[C@@H]1Cc2c([nH]c3ccccc23)[C@@H](c2ccc(N[C@H]3CCN(CCCF)C3)cn2)N1CC(F)(F)F [Example 3, N-((S)-1-(3-fluoropropyl)pyrrolidin-3-yl)-6-((1S,3R)-3-methyl-2-(2,2,2-trifluoroethyl)-2,3,4,9-tetrahydro-1H-pyridino[3,4-b]indol-1-yl)pyridine-3-amine]	414 ng·h/mL	98 ng/mL	13 h	2804 ng·h/mL	219 ng/mL	9 h	3 h	68%	10 µM
